From patent US12466821B2 (Novartis AG, priority 2018, dated 2025)

Each molecule was assayed against human HSV DNA polymerase UL30 (Human herpesvirus 1 (strain 17) (HHV-1) (Human herpes simplex virus 1), UniProt P04293) (assay: HSV polymerase biochemical assay (molecular beacon-based)). Details: not given.
Protocol: (§1) Both human CMV DNA polymerase UL54 and human HSV DNA polymerase UL30 were produced as N-terminal MBP fusion of the full length, wild type recombinant proteins in order to enhance soluble expression in insect cell expression system. The proteins were expressed in sf9 insect cells via baculovirus transduction and cells were harvested after 48 hours. The soluble proteins were purified using the standard Ni-IMAC purification strategy via the N-terminal hexa-Histidine tag, followed by heparin affinity chromatography. Both of the final MBP fusion proteins were more than 90% pure and the yield of UL54 was up to 1.8 mg per liter culture while UL30 was up to 15 mg per liter culture. All purification steps were performed on ice, with buffers chilled on ice and FPLC fraction collectors set at 6° C. […] UL30 protein was stored in buffer containing 20 mM HEPES, pH7.0, 420 mM NaCl, 20% glycerol, 6 mM Imidazole, and 0.8 mM DTT at−80° C.
(§2) DNA polymerase activity was measured using a molecular beacon-based assay, as described in Ma et. al.
(§3) 100 pM CMV polymerase or 625 pM HSV polymerase was added to a buffer containing 20 mM Tris, pH=7.5, 100 mM NaCl, 10 mM MgCl2, 0.01% Tween-20, 0.5 mM EDTA, 10% Sucrose and 1 mM DTT. The inhibitor was pre-incubated with the polymerase for 30 minutes at room temperature. Reactions were initiated by the addition of a mixture containing 1.25 uM dATP, 1.25 uM dCTP, 1.25 uM dTTP, 1.25 uM dGTP, 200 nM Primer B (5′-GAC GGG AAG-3′5′-GAC GGG AAG-3′) and 100 nM molecular beacon (5′-5,6-FAM-CCTCTCCGTGTCTTGTACTTCCCGTCAGAGAGG-BHQ1-3′). For human CMV polymerase the reactions were incubated for 60 minutes at room temperature. For HSV polymerase the reactions were incubated for 20 minutes at room temperature. The reactions were then read on a Perkin-Elmer EnVision 2101 reader (fluorescence) using an excitation of 480 nm and emission of 535 nm. 1050s were determined using an internal Novartis software (Helios).
as §3, with “nm.” for “nm. 1050s were determined using an internal Novartis software (Helios).”

Compound | IC50
CCN1CCn2c(ccc(C(=O)NCc3ccc(Cl)cc3)c2=O)C1=O [Example 113, N-(4-chlorobenzyl)-2-ethyl-1,6-dioxo-2,3,4,6-tetrahydro-1H-pyrido[1,2-a]pyrazine-7-carboxamide] | 23600 nM
CN1CCn2c(ccc(C(=O)NCc3ccc(Cl)cc3)c2=O)C1=O [Example 114, N-(4-chlorobenzyl)-2-methyl-1,6-dioxo-2,3,4,6-tetrahydro-1H-pyrido[1,2-a]pyrazine-7-carboxamide] | 25000 nM

Each molecule was assayed on Luciferase-encoding HCMV, AD169 strain (assay: CMV Luciferase assay (cellular herpesvirus replication)). Details: Human betaherpesvirus 5, AD169, read-out: CMV-Luc Cellular EC50.
Format: cell-based
Protocol: For all viral assays, 10 mM DMSO stock compound solutions were serially diluted in DMSO at 3.16 fold dilutions in 96-well clear round bottom plates. Compounds were then diluted in assay media at 1:20 and subsequently 10 μL of these dilutions were added to cells for final compound concentrations ranging either from 0.0159 μM to 50 μM in 0.5% DMSO/assay media, or from 0.00318 to 10 μM in 0.5% DMSO/assay media.
The assay uses a Luciferase-encoding HCMV. Luciferase is expressed under the control of a late viral gene (pp28) promoter in the AD169 strain, so that expression of the reporter is dependent on viral DNA replication. Compounds that affect any stage from viral entry to DNA replication result in a change in luciferase levels.
Viral replication in the presence or absence of compounds was measured by luciferase activity according to the following procedure: Neo-natal normal human dermal fibroblast cells (NN-NHDF, from ATCC cat #201-010) were seeded at 9,000 cells/well in 96-well white solid bottom plate at 80 uL/well in assay media: 2% FBS, 4 mM GlutaMax® (Invitrogen cat #35050) in DMEM/high glucose/no glutamine/no phenol red media (Invitrogen cat #31053). After 2 hrs at 37° C., 10 uL of compound diluted in assay media or 5% DMSO (final 0.5% DMSO/well) was added and the plates returned to 37° C. One hour later, 10 uL of virus diluted in assay media was added at a final Multiplicity of infection (MOI) of 1. Plates were incubated at 37° C. for 72 hrs. At 72 hours post-infection (hpi), plates were equilibrated to room temperature. After 25 min, 100 uL Renilla-Glo® Luciferase Assay Reagent (Promega cat # E2750) was added to each well and incubated for 10 min. Plates were covered to protect from light. Luminescence was measured on the PHERAstar FS®.
The following controls were included in the data analysis: No virus, no compound (0.5% DMSO)=IC (maximal inhibitory control); Virus, no compound (0.5% DMSO)=NC (neutral control). Data were analyzed using an internal Novartis software (Helios). The means of the controls (NC, IC) were used to normalize the results to a % scale using the formula: % Control=100−(100*(Sample value−NC)/(IC−NC)).
For each compound, the software derived an EC50 using a 4-parameter logistical model.

Compound | EC50
CC(CCO)S(=O)(=O)C1(CN2CCn3c(ccc(C(=O)NCc4ccc(Cl)cc4)c3=O)C2=O)CC1 (stereo not shown) [Example 4, N-(4-chlorobenzyl)-2-((1-((4-hydroxybutan-2-yl)sulfonyl)cyclopropyl)methyl)-1,6-dioxo-2,3,4,6-tetrahydro-1H-pyrido[1,2-a]pyrazine-7-carboxamide] | 40.4 nM
N#Cc1ccc(CNC(=O)c2ccc3n(c2=O)CCN(CC2(S(=O)(=O)CCCO)CC2)C3=O)cc1F [Example 23] | 452 nM
CS(=O)(=O)CCN1CCn2c(ccc(C(=O)NCc3ccc(Cl)cc3)c2=O)C1=O [Example 51, N-(4-chlorobenzyl)-2-(2-(methylsulfonyl)ethyl)-1,6-dioxo-2,3,4,6-tetrahydro-1H-pyrido[1,2-a]pyrazine-7-carboxamide] | 1870 nM
CN(C)S(=O)(=O)C1(CN2CCn3c(ccc(C(=O)NCc4ccc(C#N)cc4)c3=O)C2=O)CC1 [Example 90-2] | 34 nM
N#CCS(=O)(=O)C1(CN2CCn3c(ccc(C(=O)NCc4ccc(Cl)cc4)c3=O)C2=O)CC1 [Example 108-1, N-(4-Chlorobenzyl)-2-((1-((cyanomethyl)sulfonyl)cyclopropyl)methyl)-1,6-dioxo-2,3,4,6-tetrahydro-1H-pyrido[1,2-a]pyrazine-7-carboxamide] | 228 nM
CS(=O)(=O)CCCN1CCn2c(c(C3CC3)cc(C(=O)NCc3ccc(Cl)cc3)c2=O)C1=O [Example 130] | 13300 nM
O=C(NCc1ccc(Cl)cc1)c1cc(C2CC2)c2n(c1=O)CCN(CCN1CCCS1(=O)=O)C2=O [Example 131] | 949 nM
O=C(NCc1ccc(Cl)cc1)c1cc(CC2CC2)c2n(c1=O)CCN(CCN1CCCS1(=O)=O)C2=O [Example 133, N-(4-chlorobenzyl)-9-(cyclopropylmethyl)-2-(2-(1,1-dioxidoisothiazolidin-2-yl)ethyl)-1,6-dioxo-1,3,4,6-tetrahydro-2H-pyrido[1,2-a]pyrazine-7-carboxamide] | 1020 nM
CCc1cc(C(=O)NCc2ccc(Cl)cc2)c(=O)n2c1C(=O)N(CCN1CCCS1(=O)=O)CC2 [Example 135] | 749 nM
O=C(NCc1ccc(Cl)cc1)c1cc(C(F)F)c2n(c1=O)CCN(CCN1CCCS1(=O)=O)C2=O [Example 144] | 10400 nM
CS(=O)(=O)CCCN1CCn2c(c(C(F)(F)F)cc(C(=O)NCc3ccc(Cl)cc3)c2=O)C1=O [Example 146, N-(4-chlorobenzyl)-2-(3-(methylsulfonyl)propyl)-1,6-dioxo-9-(trifluoromethyl)-1,3,4,6-tetrahydro-2H-pyrido[1,2-a]pyrazine-7-carboxamide] | 47200 nM
Cc1cc(C(=O)NCc2ccc(Cl)cc2)c(=O)n2c1C(=O)N(CC1(N3CCCS3(=O)=O)CC1)CC2 [Example 150] | 67.7 nM
Cc1cc(C(=O)NCc2ccc(Cl)cc2)c(=O)n2c1C(=O)N(CCC1(S(C)(=O)=O)CC1)CC2 [Example 151] | 10000 nM
Cc1cc(C(=O)NCc2ccc(Cl)cc2)c(=O)n2c1C(=O)N(CC1(CS(C)(=O)=O)CC1)CC2 [Example 154] | 662 nM
CN(CCN1CCn2c(c(F)cc(C(=O)NCc3ccc(Cl)cc3)c2=O)C1=O)S(C)(=O)=O [Example 160, N-(4-chlorobenzyl)-9-fluoro-2-(2-(N-methylmethylsulfonamido)ethyl)-1,6-dioxo-1,3,4,6-tetrahydro-2H-pyrido[1,2-a]pyrazine-7-carboxamide] | 3600 nM
CS(=O)(=O)C1(CCN2CCn3c(c(F)cc(C(=O)NCc4ccc(Cl)cc4)c3=O)C2=O)CC1 [Example 165] | 10000 nM
CS(=O)(=O)C1(CN2CCn3c(c(F)cc(C(=O)NCc4ccc(Cl)cc4)c3=O)C2=O)CC1 [Example 167] | 57.3 nM
CS(=O)(=O)CC1(CN2CCn3c(c(F)cc(C(=O)NCc4ccc(Cl)cc4)c3=O)C2=O)CC1 [Example 168] | 1100 nM
CS(=O)(=O)C1(CCN2CCn3c(ccc(C(=O)NCc4ccc(Cl)cc4)c3=O)C2=O)CC1 [Example 170, N-(4-chlorobenzyl)-2-(2-(1-(methylsulfonyl)cyclopropyl)ethyl)-1,6-dioxo-1,3,4,6-tetrahydro-2H-pyrido[1,2-a]pyrazine-7-carboxamide] | 9030 nM
COC1(S(=O)(=O)C2(CN3CCn4c(ccc(C(=O)NCc5ccc(Cl)cc5)c4=O)C3=O)CC2)CC1 [Example 188] | 11.6 nM
NC1(CN2CCn3c(ccc(C(=O)NCc4ccc(Cl)cc4)c3=O)C2=O)CC1 [Example 197] | 4790 nM
CCOC(=O)C1(CN2CCn3c(ccc(C(=O)NCc4ccc(Cl)cc4)c3=O)C2=O)CC1 [Example 207, ethyl 1-((7-((4-chlorobenzyl)carbamoyl)-1,6-dioxo-1,3,4,6-tetrahydro-2H-pyrido[1,2-a]pyrazin-2-yl)methyl)cyclopropane-1-carboxylate] | 3790 nM
O=C(NCc1ccc(Cl)cc1)c1ccc2n(c1=O)CCN(CC1(C(=O)N3CCC3)CC1)C2=O [Example 208, 2-((1-(azetidine-1-carbonyl)cyclopropyl)methyl)-N-(4-chlorobenzyl)-1,6-dioxo-1,3,4,6-tetrahydro-2H-pyrido[1,2-a]pyrazine-7-carboxamide] | 5180 nM
CN(C)C(=O)C1(CN2CCn3c(ccc(C(=O)NCc4ccc(Cl)cc4)c3=O)C2=O)CC1 [Example 209] | 2490 nM
O=C(NCc1ccc(Cl)cc1)c1ccc2n(c1=O)CCN(CC1(C(=O)N3CCOCC3)CC1)C2=O [Example 211] | 7810 nM

What follows are molecules tested against human CMV DNA polymerase UL54 (Human cytomegalovirus (strain AD169) (HHV-5) (Human herpesvirus 5), UniProt P08546) (assay: CMV polymerase biochemical assay (molecular beacon-based)). Details: not given.
Protocol: as §1, §2, §3
as §3, with “nm.” for “nm. 1050s were determined using an internal Novartis software (Helios).”

Compound | IC50
CC(CCO)S(=O)(=O)C1(CN2CCn3c(ccc(C(=O)NCc4ccc(Cl)cc4)c3=O)C2=O)CC1 (stereo not shown) [Example 4, N-(4-chlorobenzyl)-2-((1-((4-hydroxybutan-2-yl)sulfonyl)cyclopropyl)methyl)-1,6-dioxo-2,3,4,6-tetrahydro-1H-pyrido[1,2-a]pyrazine-7-carboxamide] | 0.4 nM
CCN1CCn2c(ccc(C(=O)NCc3ccc(Cl)cc3)c2=O)C1=O [Example 113, N-(4-chlorobenzyl)-2-ethyl-1,6-dioxo-2,3,4,6-tetrahydro-1H-pyrido[1,2-a]pyrazine-7-carboxamide] | 3130 nM
CN1CCn2c(ccc(C(=O)NCc3ccc(Cl)cc3)c2=O)C1=O [Example 114, N-(4-chlorobenzyl)-2-methyl-1,6-dioxo-2,3,4,6-tetrahydro-1H-pyrido[1,2-a]pyrazine-7-carboxamide] | 3990 nM
COC1(S(=O)(=O)C2(CN3CCn4c(ccc(C(=O)NCc5ccc(Cl)cc5)c4=O)C3=O)CC2)CC1 [Example 188] | 0.8 nM
